The source of these data is patent publication US12655125B2 (SIRONAX LTD., priority 2020, dated 2026).

The structures appear in SMILES notation. pEC50: −log10 of the molar value.

The assay has as its system HT-29 cells. The assay can be described thus: HT29 Cells 0FBS Assay In Vitro (TNF-α/SMAC mimetic/zVAD-FMK induced necroptosis, CellTiter-Glo cell viability). The assay is classed as cell-based. Conditions: Homo sapiens; HT-29 cells, FBS free medium, TNF-α (10 ng/ml), SMAC mimetic (6 uM), zVAD-FMK (10 μM), 20 hours; geometric mean EC50; read-out: Cell activity (EC50) of Compounds 1-116. The source says: Protocol for HT29 Cells 0FBS Assay In Vitro
• Cell line: HT-29 (ATCC® HTB-38™) • Culture medium: McCOY's 5 A, Gibco, Cat No. 16600-082 • FBS, Gibco, Cat No. 10099-141C • Trypsin: Gibco, Cat No. 25200-056 • DMSO: Sigma, Cat No. 67-68-5, 1 L • Assay plate: Corning #3903 • Compound dilution plate: Corning #3357 • Inducers: TNFα, GenScript, Cat No. ZO1001-50, • SmacM, Cat. No., HY-15989, MedChemExpress (MCE) • Z_VAD FMK, TargetMol, T6013 • Cell Titer-Glo® Luminescent Cell Viability Assay Kit: Promega, Cat No. G7573 • EnVision: PerkinElmer, 2105-0010 2. Cell Seeding of HT-29 Cells • 1) HT-29 cells were checked every day to make sure they are healthy and growing as expected. They were split sub-culturing when were approximately 80% confluent. • 2) First pre-warm the culture medium of McCOY's 5 A medium (Gibco, Cat No. 16600-082) with 10% FBS (Gibco, Cat No. 10099-141C) in 37° C. water bath for at least 30 min. • 3) Growing cells to desired level of confluency 80% in a T75 flask, aspirate the medium, and wash with warm PBS two times. • 4) Add 2-3 ml fresh warm trypsin (Gibco, Cat No. 25200-056) solution. Transfer the flask to a 37° C. incubator. • 5) After 5 minutes, tap the side of the flask, and examine the flask under a microscope for lifting. If necessary, return the cells to the incubator for an additional 5-10 minutes, with occasional tapping, until lifting is complete. • 6) Quickly neutralize the trypsin reaction by adding 6-9 ml cell culture medium, then transfer the cells to sterile 15 ml conical tubes. Pellet the cells by centrifugation at 300×g for 7 minutes, then decant the supernatant. • 7) Resuspend the cells in fresh cell culture medium. Do cell counting with hemocytometer. • 8) Seed 100 μl of 5,000 cells into each well of the sterile 96-well cell culture plate (Corning 3903) and culture overnight at 37° C. with 5% C02. 3. Compounds Titration and Treatment of HT-29 Cells • 1) All batches of compounds (CPDs) (e.g., compound 1-281) were dissolved in DMSO (Dimethyl sulfoxide) as 20 mM stock solution. • 2) Take 3 ul 20 mM stock solution of CPDs to 27 ul DMSO and mix well, continue the titration ratio of 1:3 (20 ul CPDs+40 ul DMSO), e.g., to give solutions of CPDS at 6.6 mM, 2.2 mM, etc., till the 10 points end. • 3) Take out assay plates with HT-29 cells from incubator, remove all culture medium then wash 1 time with 1×PBS, and change fresh McCOY's 5 A medium of FBS free with a cocktail of TNF-α (10 ng/ml), the SMAC mimetic (6 uM) and zVAD-FMK (10 μM) to stimulate the HT-29 cells to increase pRIPK1 levels and necroptosis. • 4) Add 0.5 μL of the diluted compound to the corresponding 96-well assay plates. • 5) Incubate the assay plates for 20 hours at 37° C. with 5% C02. 4. Performing Cell Viability Detection of HT-29 Cells after Treated with Compounds • 1) The CellTiter-Glo® Luminescent Cell Viability Assay was employed to detect the ATP levels of viable HT-29 cells. • 2) Equilibrate the CellTiter-Glo® buffer and the lyophilized substrate to room temperature prior to use. • 3) Resuspend the CellTiter-Glo® substrate with CellTiter-Glo® buffer, mix by gently vortexing to obtain a homogeneous solution. • 4) Pipette 20 μl the enzyme/substrate mixture by multi-channel pipette into the 96-well assay plates from step 5) under the Compounds titration and treatment stage. • 5) Place the plates on an orbital shaker and mix the contents for 3 minutes to induce cell lysis. • 6) Then allow the plates to incubate at room temperature for 10 minutes to stabilize luminescent signal. • 7) Read and record luminescence signal with EnVision. • 8) The geometric mean EC50 of the compounds were calculated from points response dose with duplicate. In Tables 2 and 4, activity is provided as follows: +++=0.1 nM≤EC50<100 nM; ++=100 nM≤EC50<1000 nM; +=1000 nM≤EC50<10000 nM.
Regarding `Cc1nc(C)c(-c2ncc(F)c(OC3CN(C(=O)N4N=CC[C@H]4c4cc(F)cc(F)c4)C3)n2)s1` [compound 19, (S)-(5-(3,5-difluorophenyl)-4,5-dihydro-1H-pyrazol-1-yl)(3-((2-(2,4-dimethylthiazol-5-yl)-5-fluoropyrimidin-4-yl)oxy)azetidin-1-yl)methanone], the negative-log EC50 (pEC50) is 7.00 to 10.00.

Regarding `Cc1noc(C)c1-c1ncc(F)c(OC2CN(C(=O)N3N=CC[C@H]3c3cc(F)cc(F)c3)C2)n1` [compound 20, (S)-(5-(3,5-difluorophenyl)-4,5-dihydro-1H-pyrazol-1-yl)(3-((2-(3,5-dimethylisoxazol-4-yl)-5-fluoropyrimidin-4-yl)oxy)azetidin-1-yl)methanone], the pEC50 is 7.00 to 10.00. Take `Cc1oncc1-c1ncc(F)c(OC2CN(C(=O)N3N=CC[C@H]3c3cc(F)cc(F)c3)C2)n1` [compound 21, (S)-(5-(3,5-difluorophenyl)-4,5-dihydro-1H-pyrazol-1-yl)(3-((5-fluoro-2-(5-methylisoxazol-4-yl)pyrimidin-4-yl)oxy)azetidin-1-yl)methanone]: the pEC50 is 7.00 to 10.00.

As to `Cc1nocc1-c1ncc(F)c(OC2CN(C(=O)N3N=CC[C@H]3c3cc(F)cc(F)c3)C2)n1` [compound 22, (S)-(5-(3,5-difluorophenyl)-4,5-dihydro-1H-pyrazol-1-yl)(3-((5-fluoro-2-(3-methylisoxazol-4-yl)pyrimidin-4-yl)oxy)azetidin-1-yl)methanone], the pEC50 is 7.00 to 10.00.

Regarding `Cc1csnc1-c1ccc(F)c(OC2CN(C(=O)N3N=CC[C@H]3c3cc(F)cc(F)c3)C2)n1` [compound 23, (S)-(5-(3,5-difluorophenyl)-4,5-dihydro-1H-pyrazol-1-yl)(3-((3-fluoro-6-(4-methylisothiazol-3-yl)pyridin-2-yl)oxy)azetidin-1-yl)methanone], the negative logarithm of the EC50 (pEC50) is 7.00 to 10.00.

With `Cc1nnc(-c2ccc(F)c(OC3CN(C(=O)N4N=CC[C@H]4c4cc(F)cc(F)c4)C3)n2)s1` [compound 24, (S)-(5-(3,5-difluorophenyl)-4,5-dihydro-1H-pyrazol-1-yl)(3-((3-fluoro-6-(5-methyl-1,3,4-thiadiazol-2-yl)pyridin-2-yl)oxy)azetidin-1-yl)methanone], the negative logarithm of the EC50 (pEC50) is 7.00 to 10.00. Turning to `Cc1ncc(-c2ncc(F)c(OC3CN(C(=O)N4N=CC[C@H]4c4cc(F)cc(F)c4)C3)n2)s1` [compound 25, (S)-(5-(3,5-difluorophenyl)-4,5-dihydro-1H-pyrazol-1-yl)(3-((5-fluoro-2-(2-methylthiazol-5-yl)pyrimidin-4-yl)oxy)azetidin-1-yl)methanone], the pEC50 is 7.00 to 10.00. To `Cc1ncc(-c2cc(OC3CN(C(=O)N4N=CC[C@H]4c4cc(F)cc(F)c4)C3)c(F)cn2)s1` [compound 26, (S)-(5-(3,5-difluorophenyl)-4,5-dihydro-1H-pyrazol-1-yl)(3-((5-fluoro-2-(2-methylthiazol-5-yl)pyridin-4-yl)oxy)azetidin-1-yl)methanone] belongs 7.00 to 10.00; to `Cc1nnc(-c2ccc(F)c(OC3CN(C(=O)N4N=CCC4c4cc(F)cc(F)c4)C3)n2)o1` (stereo not shown) [compound 27, (5-(3,5-difluorophenyl)-4,5-dihydro-1H-pyrazol-1-yl)(3-((3-fluoro-6-(5-methyl-1,3,4-oxadiazol-2-yl)pyridin-2-yl)oxy)azetidin-1-yl)methanone], 6.00 to 7.00; to `Cn1ncnc1-c1ccc(F)c(OC2CN(C(=O)N3N=CC[C@H]3c3cc(F)cc(F)c3)C2)n1` [compound 28, (S)-(5-(3,5-difluorophenyl)-4,5-dihydro-1H-pyrazol-1-yl)(3-((3-fluoro-6-(1-methyl-1H-1,2,4-triazol-5-yl)pyridin-2-yl)oxy)azetidin-1-yl)methanone], 7.00 to 10.00. The same measure for `Cn1ncnc1-c1cc(OC2CN(C(=O)N3N=CC[C@H]3c3cc(F)cc(F)c3)C2)c(F)cn1` [compound 29, (S)-(5-(3,5-difluorophenyl)-4,5-dihydro-1H-pyrazol-1-yl)(3-((5-fluoro-2-(1-methyl-1H-1,2,4-triazol-5-yl)pyridin-4-yl)oxy)azetidin-1-yl)methanone]: 7.00 to 10.00; for `Cn1ncnc1-c1ncc(F)c(OC2CN(C(=O)N3N=CC[C@H]3c3cc(F)cc(F)c3)C2)n1` [compound 30, (S)-(5-(3,5-difluorophenyl)-4,5-dihydro-1H-pyrazol-1-yl)(3-((5-fluoro-2-(1-methyl-1H-1,2,4-triazol-5-yl)pyrimidin-4-yl)oxy)azetidin-1-yl)methanone]: 7.00 to 10.00. To `Cn1cc(-c2cc(OC3CN(C(=O)N4N=CC[C@H]4c4cc(F)cc(F)c4)C3)c(F)cn2)nn1` [compound 32, (S)-(5-(3,5-difluorophenyl)-4,5-dihydro-1H-pyrazol-1-yl)(3-((5-fluoro-2-(1-methyl-1H-1,2,3-triazol-4-yl)pyridin-4-yl)oxy)azetidin-1-yl)methanone] belongs 7.00 to 10.00; to `Cn1ncc(-c2cc(OC3CN(C(=O)N4N=CC[C@H]4c4cc(F)cc(F)c4)C3)c(F)cn2)n1` [compound 33, (S)-(5-(3,5-difluorophenyl)-4,5-dihydro-1H-pyrazol-1-yl)(3-((5-fluoro-2-(2-methyl-2H-1,2,3-triazol-4-yl)pyridin-4-yl)oxy)azetidin-1-yl)methanone], 7.00 to 10.00; to `Cn1nncc1-c1cc(OC2CN(C(=O)N3N=CC[C@H]3c3cc(F)cc(F)c3)C2)c(F)cn1` [compound 34, (S)-(5-(3,5-difluorophenyl)-4,5-dihydro-1H-pyrazol-1-yl)(3-((5-fluoro-2-(1-methyl-1H-1,2,3-triazol-5-yl)pyridin-4-yl)oxy)azetidin-1-yl)methanone], 7.00 to 10.00. In the case of `Cc1cc(-c2ncc(F)c(OC3CN(C(=O)N4N=CC[C@H]4c4cc(F)cc(F)c4)C3)n2)n(C)n1` [compound 35, (S)-(5-(3,5-difluorophenyl)-4,5-dihydro-1H-pyrazol-1-yl)(3-((2-(1,3-dimethyl-1H-pyrazol-5-yl)-5-fluoropyrimidin-4-yl)oxy)azetidin-1-yl)methanone], the pEC50 is 7.00 to 10.00.

`Cc1cc(-c2cc(OC3CN(C(=O)N4N=CC[C@H]4c4cc(F)cc(F)c4)C3)c(F)cn2)n(C)n1` [compound 36, (S)-(5-(3,5-difluorophenyl)-4,5-dihydro-1H-pyrazol-1-yl)(3-((2-(1,3-dimethyl-1H-pyrazol-5-yl)-5-fluoropyridin-4-yl)oxy)azetidin-1-yl)methanone]: the pEC50 is 7.00 to 10.00. Regarding `Cc1nn(C)cc1-c1ncc(F)c(OC2CN(C(=O)N3N=CC[C@H]3c3cc(F)cc(F)c3)C2)n1` [compound 37, (S)-(5-(3,5-difluorophenyl)-4,5-dihydro-1H-pyrazol-1-yl)(3-((2-(1,3-dimethyl-1H-pyrazol-4-yl)-5-fluoropyrimidin-4-yl)oxy)azetidin-1-yl)methanone], the pEC50 is 7.00 to 10.00. To `Cc1nn(C)cc1-c1cc(OC2CN(C(=O)N3N=CC[C@H]3c3cc(F)cc(F)c3)C2)c(F)cn1` [compound 38, (S)-(5-(3,5-difluorophenyl)-4,5-dihydro-1H-pyrazol-1-yl)(3-((2-(1,3-dimethyl-1H-pyrazol-4-yl)-5-fluoropyridin-4-yl)oxy)azetidin-1-yl)methanone] belongs 7.00 to 10.00.
